Data taken from patent US5484934A, “Isothiazole derivatives, a process for production thereof and uses thereof” (Nihon Nohyaku Co., Ltd., priority 1992, dated 1996).

Assays:
Fusarium oxysporum = experiment: Inhibition of hypha growth on malt extract agar, Fusarium oxysporum; settings: read-out: Controlling effect (growth inhibition rate) FUO
Method: (§1) Each preparation to be tested was added to malt extract agar medium to adjust the concentration to 50 ppm, and the resulting mixture was dispensed into Petri dishes. As an inoculum, a prepared mycerial tuft of each test fungus was punched out together with agar by means of a 4-mm-diameter cork borer and inoculated on medium. The incubation temperature was adjusted to 28±2° .C (or 18±2° C. in the case of Selupula lacrymas).
(§2) The diameter of mycerial tuft was measured 2 to 10 days after the inoculation, and the inhibition rate of hypha growth (the following equation) was measured.
(§3) The controlling effect was evaluated according to the following criterion.

Coriolus versicolor = experiment: Inhibition of hypha growth on malt extract agar, Coriolus versicolor; format: cell-based; settings: Trametes versicolor, 28±2° C., 2 to 10 days, read-out: Controlling effect (growth inhibition rate) COV
Aspergillus niger = experiment: Inhibition of hypha growth on malt extract agar, Aspergillus niger; settings: read-out: Controlling effect (growth inhibition rate) ASN
Method: as §1, §2, §3

Chaetomium globosum = experiment: Inhibition of hypha growth on malt extract agar, Chaetomium globosum; settings: read-out: Controlling effect (growth inhibition rate) CHG
Method: as §1, §2, §3

Alternaria mali = experiment: Inhibition of hypha growth on malt extract agar, Alternaria mali; settings: read-out: Controlling effect (growth inhibition rate) ALM
[1] = tested on: Cladosporium cladosporioides; experiment: Inhibition of hypha growth on malt extract agar, Cladosporium cladosporioides; settings: read-out: Controlling effect (growth inhibition rate) CLC
Method: as §1, §2

Tyromyces palustris = experiment: Inhibition of hypha growth on malt extract agar, Tyromyces palustris; settings: read-out: Controlling effect (growth inhibition rate) TYP
Method: as §1, §2

Trichoderma viride = experiment: Inhibition of hypha growth on malt extract agar, Trichoderma viride; settings: read-out: Controlling effect (growth inhibition rate) TRV
Rhizopus nigricans = experiment: Inhibition of hypha growth on malt extract agar, Rhizopus nigricans; settings: Rhizopus stolonifer, read-out: Controlling effect (growth inhibition rate) RHS
Serpula lacrymans = experiment: Inhibition of hypha growth on malt extract agar, Serpula lacrymans; settings: read-out: Controlling effect (growth inhibition rate) SEL
Method: as §1, §2

Structure (SMILES) | inhibition at 50 ppm (Fusarium oxysporum) | inhibition at 50 ppm (Coriolus versicolor) | inhibition at 50 ppm (Aspergillus niger) | inhibition at 50 ppm (Chaetomium globosum) | inhibition at 50 ppm (Alternaria mali) | inhibition at 50 ppm [1] | inhibition at 50 ppm (Tyromyces palustris) | inhibition at 50 ppm (Trichoderma viride) | inhibition at 50 ppm (Rhizopus nigricans) | inhibition at 50 ppm (Serpula lacrymans)
N#Cc1c(O)nsc1S(=O)(=O)c1ccc(F)cc1 [Compound 11] | 85 to 99% | 85 to 99% | 55 to 84% | 85 to 99% | 55 to 84% | 55 to 84% | 85 to 99% | 85 to 99% | 85 to 99% | 55 to 84%
COC(=O)CS(=O)(=O)c1snc(OC)c1C#N [Compound 81] | 100% | 100% | 100% | 100% | 100% | 100% | 100% | 100% | 100% | 100%
COc1nsc(S(=O)(=O)c2c(C)cc(C)cc2C)c1C#N [Compound 97] | 100% | 100% | 85 to 99% | 100% | 100% | 85 to 99% | 100% | 100% | 100% | 100%
CCOC(=O)C[S+]([O-])c1snc(OC)c1C#N (stereo not shown) [Compound 18] | 85 to 99% | 100% | 100% | 100% | 85 to 99% | 100% | 100% | 100% | 100% | 100%
Cc1ccc(Cl)cc1S(=O)(=O)c1snc(OC(F)F)c1C#N [Compound 113] | 100% | 100% | 100% | 100% | 100% | 100% | 100% | 100% | 100% | 100%
CCOCCOc1nsc(S(C)(=O)=O)c1C#N [Compound 73] | 100% | 100% | 85 to 99% | 100% | 85 to 99% | 85 to 99% | 100% | 85 to 99% | 100% | 100%
C=C(C)COc1nsc([S+](C)[O-])c1C#N (stereo not shown) [Compound 17] | 100% | 85 to 99% | 100% | 100% | 100% | 100% | 100% | 100% | 100% | 100%
CC=CCOc1nsc(S(C)(=O)=O)c1C#N [Compound 57] | 100% | 100% | 85 to 99% | 85 to 99% | 85 to 99% | 100% | 100% | 85 to 99% | 85 to 99% | 100%
CC(C)S(=O)(=O)c1snc(OC[Si](C)(C)C)c1C#N [Compound 77, 3-trimethylsilylmethoxy-4-cyano-5-isopropylsulfonylisothiazole] | 85 to 99% | 100% | 85 to 99% | 100% | 85 to 99% | 85 to 99% | 85 to 99% | 100% | 100% | 100%
CC(C)(C)c1ccc(S(=O)(=O)c2snc(OC(F)F)c2C#N)cc1 [Compound 117] | 85 to 99% | 100% | 100% | 100% | 85 to 99% | 85 to 99% | 85 to 99% | 100% | 100% | 100%
